The test system of experiment [1] is methicillin resistant Staphylococcus aureus (MRSA) biofilm. The following applies: approximate peptide concentration […] (around 3 μg/ml); compared to untreated samples. The procedure, abridged: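 Peptide was present from inoculation onward, with bacteria seeded at 1/100 from overnight cultures into BM2 biofilm medium or Luria Broth. Crystal violet staining of surface-attached cells (A595) quantified biofilm reduction at 22–46 h. K. pneumoniae was additionally screened in a real-time Bioflux flow device for some peptides.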

For experiment [2], the system named is human peripheral blood mononuclear cells (MCP-1). The experiment is described as follows: SPOT-synthesized derivative screen: production of chemokine MCP-1. Format: cell-based. The note with it: Table 12, No LPS, human PBMC, peptide at ~18-24 μM; for MCP1: background subtracted 139 (HH2 derivatives), 170 (1018 derivatives), 242 (1002 and hybrid peptides) pg/ml. The procedure, abridged:
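MCP-1 was quantified by capture ELISA in cleared culture supernatants of treated human peripheral blood mononuclear cells. Cells came from heparinized volunteer blood via Ficoll gradient and were seeded at 0.75 to 1×10^6 cells/ml (37 °C, 5% CO2).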

The test system of experiment [3] is LPS-stimulated human peripheral blood mononuclear cells (IL1-β). Format: cell-based. The following applies: Table 12, cells stimulated with 10 ng/ml LPS; for IL1β Production: LPS alone 1313 (HH2 derivatives), 1927 (1018 derivatives), 2455 (1002 and hybrid peptides) pg/ml.

Ends that are not written are not given here.

As to “HH2-L7: single substituted HH2 peptide (VQLRIRLAVIRA-NH2)”, the “% Biofilm inhibition” value in experiment [1] amounted to 68%. In experiment [2], the “Fold increase in MCP1 cf. untreated cells” value (“Fold increase” below) turned out to be 19 and the “MCP1” value stood at 3138 pg/mL. In experiment [3], the “Fold change in IL1β relative to no peptide LPS stimulated cells” value turned out to be 1.05 and the “IL1β Production” value was 1378 pg/mL.

Consider “HH2-L8: single substituted HH2 peptide (VQLRIRVLVIRA-NH2)”, for which, in experiment [1], the “% Biofilm inhibition” value is listed as 50%. Also, in experiment [2], the “Fold increase” value is on record as 107 and the “MCP1” value was determined as 17953 pg/mL. In experiment [3], the “Fold change in IL1β relative to no peptide LPS stimulated cells” value came to 0.55 and the “IL1β Production” value was 725 pg/mL.

Consider “HH2-L9: single substituted HH2 peptide (VQLRIRVALIRA-NH2)”, for which the “% Biofilm inhibition” value in experiment [1] turned out to be 65%. Besides, in experiment [2], the “Fold increase” value turned out to be 10 and the “MCP1” value is 1527 pg/mL. Moreover, in experiment [3], the “Fold change in IL1β relative to no peptide LPS stimulated cells” value stood at 1.04 and the “IL1β Production” value is 1359 pg/mL.

In the case of “HH2-L10: single substituted HH2 peptide (VQLRIRVAVLRA-NH2)”, the “% Biofilm inhibition” value in experiment [1] is given as 63%. In addition, in experiment [2], the “Fold increase” value came out at 21 and the “MCP1” value stood at 3338 pg/mL. Moreover, in experiment [3], the “Fold change in IL1β relative to no peptide LPS stimulated cells” value is 1.04 and the “IL1β Production” value came out at 1359 pg/mL.

Regarding “HH2-L11: single substituted HH2 peptide (VQLRIRVAVILA-NH2)”, the “% Biofilm inhibition” value in experiment [1] was 47%. Besides, in experiment [2], the “Fold increase” value stood at 40 and the “MCP1” value was 6545 pg/mL. In experiment [3], the “Fold change in IL1β relative to no peptide LPS stimulated cells” value is reported as 1.09 and the “IL1β Production” value was 1425 pg/mL.

In the case of “HH2-L12: single substituted HH2 peptide (VQLRIRVAVIRL-NH2)”, in experiment [1], the “% Biofilm inhibition” value came out at 51%. For the same substance, in experiment [2], the “Fold increase” value amounted to 24 and the “MCP1” value amounted to 3916 pg/mL. Further, in experiment [3], the “Fold change in IL1β relative to no peptide LPS stimulated cells” value amounted to 0.23 and the “IL1β Production” value was found to be 301 pg/mL.

For the substance “HH2-Q1: single substituted HH2 peptide (QQLRIRVAVIRA-NH2)”, the “% Biofilm inhibition” value in experiment [1] was 57%. In experiment [2], the “Fold increase” value is 65 and the “MCP1” value was 10838 pg/mL. For the same substance, in experiment [3], the “Fold change in IL1β relative to no peptide LPS stimulated cells” value amounted to 0.89 and the “IL1β Production” value turned out to be 1171 pg/mL.

Take “HH2-Q3: single substituted HH2 peptide (VQQRIRVAVIRA-NH2)”: the “% Biofilm inhibition” value in experiment [1] was found to be 28%. Moreover, in experiment [2], the “Fold increase” value is given as 6.8 and the “MCP1” value is 989 pg/mL. In experiment [3], the “Fold change in IL1β relative to no peptide LPS stimulated cells” value was 0.87 and the “IL1β Production” value was found to be 1141 pg/mL.

As to “HH2-Q4: single substituted HH2 peptide (VQLQIRVAVIRA-NH2)”, the “% Biofilm inhibition” value in experiment [1] worked out at 45%. In addition, in experiment [2], the “Fold increase” value is 2.4 and the “MCP1” value worked out at 246 pg/mL. Besides, in experiment [3], the “Fold change in IL1β relative to no peptide LPS stimulated cells” value was 0.62 and the “IL1β Production” value was 817 pg/mL.

With “HH2-Q5: single substituted HH2 peptide (VQLRQRVAVIRA-NH2)”, in experiment [1], the “% Biofilm inhibition” value amounted to 25%. In experiment [2], the “Fold increase” value is 4.5 and the “MCP1” value is 603 pg/mL. In experiment [3], the “Fold change in IL1β relative to no peptide LPS stimulated cells” value came to 0.98 and the “IL1β Production” value amounted to 1284 pg/mL.

With “HH2-Q6: single substituted HH2 peptide (VQLRIQVAVIRA-NH2)”, the “% Biofilm inhibition” value in experiment [1] is on record as 35%. Besides, in experiment [2], the “Fold increase” value worked out at 191 and the “MCP1” value came out at 32306 pg/mL. Also, in experiment [3], the “Fold change in IL1β relative to no peptide LPS stimulated cells” value is reported as 0.83 and the “IL1β Production” value came out at 1088 pg/mL.

Take “HH2-Q7: single substituted HH2 peptide (VQLRIRQAVIRA-NH2)”: in experiment [1], the “% Biofilm inhibition” value came out at 21%. In experiment [2], the “Fold increase” value stood at 3.9 and the “MCP1” value turned out to be 488 pg/mL. Further, in experiment [3], the “Fold change in IL1β relative to no peptide LPS stimulated cells” value stood at 1.00 and the “IL1β Production” value stood at 1316 pg/mL.

Consider “HH2-Q8: single substituted HH2 peptide (VQLRIRVQVIRA-NH2)”, for which the “% Biofilm inhibition” value in experiment [1] worked out at 65%. In experiment [2], the “Fold increase” value came out at 9.4 and the “MCP1” value was 1421 pg/mL. In experiment [3], the “Fold change in IL1β relative to no peptide LPS stimulated cells” value was 0.97 and the “IL1β Production” value amounted to 1279 pg/mL.

For “HH2-Q9: single substituted HH2 peptide (VQLRIRVAQIRA-NH2)”, the “% Biofilm inhibition” value in experiment [1] was determined as 43%. Moreover, in experiment [2], the “Fold increase” value is on record as 34 and the “MCP1” value was determined as 5588 pg/mL. In experiment [3], the “Fold change in IL1β relative to no peptide LPS stimulated cells” value is 1.01 and the “IL1β Production” value came to 1321 pg/mL.

Regarding “HH2-Q10: single substituted HH2 peptide (VQLRIRVAVQRA-NH2)”, the “% Biofilm inhibition” value in experiment [1] was 61%. Besides, in experiment [2], the “Fold increase” value is listed as 31 and the “MCP1” value amounted to 5057 pg/mL. Besides, in experiment [3], the “Fold change in IL1β relative to no peptide LPS stimulated cells” value is listed as 0.90 and the “IL1β Production” value amounted to 1180 pg/mL.

With “HH2-Q11: single substituted HH2 peptide (VQLRIRVAVIQA-NH2)”, the “% Biofilm inhibition” value in experiment [1] turned out to be 63%. Moreover, in experiment [2], the “Fold increase” value was 17 and the “MCP1” value stood at 2759 pg/mL. Also, in experiment [3], the “Fold change in IL1β relative to no peptide LPS stimulated cells” value was determined as 0.78 and the “IL1β Production” value amounted to 1020 pg/mL.

For “HH2-Q12: single substituted HH2 peptide (VQLRIRVAVIRQ-NH2)”, the “% Biofilm inhibition” value in experiment [1] worked out at 72%. In addition, in experiment [2], the “Fold increase” value amounted to 13 and the “MCP1” value was determined as 2034 pg/mL. Besides, in experiment [3], the “Fold change in IL1β relative to no peptide LPS stimulated cells” value stood at 0.73 and the “IL1β Production” value worked out at 965 pg/mL.

Regarding “HH2-R1: single substituted HH2 peptide (RQLRIRVAVIRA-NH2)”, the “% Biofilm inhibition” value in experiment [1] turned out to be 53%. In experiment [2], the “Fold increase” value is 25 and the “MCP1” value worked out at 4034 pg/mL. Moreover, in experiment [3], the “Fold change in IL1β relative to no peptide LPS stimulated cells” value is 1.50 and the “IL1β Production” value amounted to 1965 pg/mL.

With “HH2-R2: single substituted HH2 peptide (VRLRIRVAVIRA-NH2)”, the “% Biofilm inhibition” value in experiment [1] stood at 54%. In addition, in experiment [2], the “Fold increase” value was 4.6 and the “MCP1” value was 604 pg/mL. In experiment [3], the “Fold change in IL1β relative to no peptide LPS stimulated cells” value worked out at 1.10 and the “IL1β Production” value was 1438 pg/mL.

For the substance “HH2-R3: single substituted HH2 peptide (VQRRIRVAVIRA-NH2)”, in experiment [1], the “% Biofilm inhibition” value amounted to 0%. In addition, in experiment [2], the “Fold increase” value was determined as 60 and the “MCP1” value is 9987 pg/mL. Besides, in experiment [3], the “Fold change in IL1β relative to no peptide LPS stimulated cells” value is reported as 1.33 and the “IL1β Production” value came out at 1746 pg/mL.

Turning to “HH2-R5: single substituted HH2 peptide (VQLRRRVAVIRA-NH2)”, the “% Biofilm inhibition” value in experiment [1] turned out to be 0%. Also, in experiment [2], the “Fold increase” value was 4.0 and the “MCP1” value worked out at 515 pg/mL. Moreover, in experiment [3], the “Fold change in IL1β relative to no peptide LPS stimulated cells” value came out at 1.66 and the “IL1β Production” value was determined as 2186 pg/mL.

As to “HH2-R7: single substituted HH2 peptide (VQLRIRRAVIRA-NH2)”, the “% Biofilm inhibition” value in experiment [1] was found to be 3%. Also, in experiment [2], the “Fold increase” value was found to be 1.6 and the “MCP1” value turned out to be 98 pg/mL. In experiment [3], the “Fold change in IL1β relative to no peptide LPS stimulated cells” value was 1.49 and the “IL1β Production” value came to 1959 pg/mL.

As to “HH2-R8: single substituted HH2 peptide (VQLRIRVRVIRA-NH2)”, the “% Biofilm inhibition” value in experiment [1] stood at 71%. Also, in experiment [2], the “Fold increase” value is recorded as 121 and the “MCP1” value worked out at 1890 pg/mL. Further, in experiment [3], the “Fold change in IL1β relative to no peptide LPS stimulated cells” value is 0.79 and the “IL1β Production” value came to 1042 pg/mL.

Regarding “HH2-R9: single substituted HH2 peptide (VQLRIRVARIRA-NH2)”, the “% Biofilm inhibition” value in experiment [1] is listed as 65%. Further, in experiment [2], the “Fold increase” value turned out to be 3.4 and the “MCP1” value stood at 406 pg/mL. In experiment [3], the “Fold change in IL1β relative to no peptide LPS stimulated cells” value was found to be 1.60 and the “IL1β Production” value came to 2099 pg/mL.

In the case of “HH2-R10: single substituted HH2 peptide (VQLRIRVAVRRA-NH2)”, the “% Biofilm inhibition” value in experiment [1] amounted to 73%. In addition, in experiment [2], the “Fold increase” value was 5.1 and the “MCP1” value was found to be 701 pg/mL. Also, in experiment [3], the “Fold change in IL1β relative to no peptide LPS stimulated cells” value is 1.53 and the “IL1β Production” value was found to be 2003 pg/mL.

In the case of “HH2-R12: single substituted HH2 peptide (VQLRIRVAVIRR-NH2)”, the “% Biofilm inhibition” value in experiment [1] came out at 80%. Further, in experiment [2], the “Fold increase” value was 51 and the “MCP1” value was found to be 8574 pg/mL. In experiment [3], the “Fold change in IL1β relative to no peptide LPS stimulated cells” value stood at 1.23 and the “IL1β Production” value turned out to be 1618 pg/mL.

Source of the values: patent US20190315823A1, “SMALL CATIONIC ANTI-BIOFILM AND IDR PEPTIDES” (priority 2013, published 2019).
